Reference: patent publication US5602101A, “Antithrombotic agents” (priority 1994, dated 1997)

Tests used:
Format in all cases: biochemical
factor Xa = biological target: T1, factor Xa (Homo sapiens, UniProt P00742); test: Serine protease inhibition, factor Xa (chromogenic substrate), Kass; settings: substrate N-Benzoyl-Ile-Glu-Gly-Arg-p-nitroanilide
T1 construct: Human factors X, Xa, IXa, XIa, and xIIa are purchased from Enzyme Research Laboratories; purchased Enzyme Research Laboratories, South Bend, Ind
Protocol: (§1) The assay is carried out by mixing 50 μl buffer (0.03M Tris, 0.15M NaCl, pH 7.4), 25 μl of human thrombin solution (purified human thrombin Enzyme Research Laboratories, South Bend, Ind.) at 8 NIH units/ml and 25 μl of test compound in a solvent (50% aqueous methanol (v:v)). Then 150 μl of an aqueous solution of the chromogenic substrate (at 0.25 mg/ml) are added and the rates of hydrolysis of the substrate are measured by monitoring the reactions at 405 nm for the release of p-nitroaniline. Standard curves are constructed by plotting free thrombin concentration against hydrolysis rate. The hydrolysis rates observed with test compounds are then converted to "free thrombin" values in the respective assays by use of the standard curves. The bound thrombin (bound to test compound) is calculated by subtracting the amount of free thrombin observed in each assay from the known initial amount of thrombin used in the assay. The amount of free inhibitor in each assay is calculated by subtracting the number of moles of bound thrombin from the number of moles of added inhibitor (test compound).
(§2) Kass is calculated for a range of concentrations of test compounds and the mean value is reported in units of liter per mole.
(§3) By substantially following the procedures described above for human thrombin, and using other human blood coagulation system serine proteases, and using fibrinolytic system serine proteases, with the appropriate chromogenic substrate, identified below, selectivity of the compounds of the present invention with respect to the coagulation factor serine proteases and to the fibrinolytic serine proteases are evaluated as well as their substantial lack of interference with human plasma clot fibrinolysis.
(§4) Human factors X, Xa, IXa, XIa, and xIIa are purchased from Enzyme Research Laboratories, South Bend, Ind.; human urokinase from Leo Pharmaceuticals, Denmark; and recombinant activated Protein C (aPC) is prepared at Eli Lilly and Co. substantially according to U.S. Pat. No. 4,981,952 incorporated by reference herein in its entirety. Chromogenic substrates: N-Benzoyl-Ile-Glu-Gly-Arg-p-nitroanilide (for factor Xa); N-Cbz-D-Arg-Gly-Arg-p-nitroanilide (for factor IXa assay as the factor Xa substrate) pyroglutamyl-Pro-Arg-p-nitroanilide (for factor XIa and for aPC); H-D-Pro-Phe-Arg-p-nitroanilide (for factor XIIa); and pyroglutamyl-Gly-Arg-p-nitroanilide (for urokinase); are purchased from KabiVitrum, Stockholm, Sweden, or from Midwest Biotech, Fishers, Indiana. Bovine trypsin is purchased from Worthington Biochemicals, Freehold, N.J., and human plasma kallikrein from Kabi Vitrum, Stockholm, Sweden. N-Benzoyl-Phe-Val-Arg-p-nitroanilide, the substrate for human thrombin and for trypsin, is synthesized according to procedures described above for the compounds of the present invention, known methods of peptide coupling from commercially available reactants, or was purchased from Midwest Biotech, Fishers, Ind. Human plasmin is purchased from Boehringer Mannheim, Indianapolis, Ind.; nt-PA is purchased as single chain activity reference from American Diagnostics, Greenwich, Conn.; modified-t-PA6 (mt-PA6) is prepared at Eli Lilly and Company by procedure known in the art (See, Burck, et al., J. Biol. Chem., 265, […] (1990). Plasmin chromogenic substrate H-D-Val-Leu-Lys-p-nitroanilide and tissue plasminegen activator (t-PA) substrate H-D-Ile-Pro-Arg-p-nitroanilide are purchased from Kabi Vitrum, Stockholm, Sweden.

human thrombin = biological target: T2, human thrombin (Homo sapiens, UniProt P00734); test: Inhibition of amidase activity of thrombin (chromogenic substrate), Kass; settings: substrate N-benzoyl-Phe-Val-Arg-p-nitroanilide, pH 7.4
T2 construct: purified human thrombin Enzyme Research Laboratories, South Bend, Ind; purchased Enzyme Research Laboratories, South Bend, Ind
Protocol: as §1
The Kass value is the hypothetical equilibrium constant for the reaction between thrombin and the test compound (I). [drawing 53]
as §2

[1] = biological target: T3, tissue plasminogen activator (t-PA) (Homo sapiens, UniProt P00750); test: Serine protease inhibition, t-PA (chromogenic substrate), Kass; settings: substrate H-D-Ile-Pro-Arg-p-nitroanilide
T3 construct: purchased American Diagnostics, Greenwich, Conn
Protocol: as §1, §2, §3, §4

Bovine trypsin = biological target: T4, Bovine trypsin (Bos taurus, UniProt P00760); test: Serine protease inhibition, trypsin (chromogenic substrate), Kass; settings: substrate N-Benzoyl-Phe-Val-Arg-p-nitroanilide
T4 construct: Bovine trypsin is purchased from Worthington Biochemicals, Freehold, N.J; purchased Worthington Biochemicals, Freehold, N.J
T4 sequence (P00760 24-246): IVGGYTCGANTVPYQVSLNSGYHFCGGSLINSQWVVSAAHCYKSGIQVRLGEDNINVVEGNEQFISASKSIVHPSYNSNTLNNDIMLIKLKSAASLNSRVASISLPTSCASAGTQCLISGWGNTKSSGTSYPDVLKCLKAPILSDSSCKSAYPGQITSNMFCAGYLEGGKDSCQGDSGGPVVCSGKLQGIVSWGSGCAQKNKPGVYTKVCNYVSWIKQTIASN
Protocol: as §1, §2, §3, §4

Human Plasma [2] = test: Anticoagulation in human plasma, prothrombin time (PT); settings: concentration required to double the PT
Protocol: (§5) Dog plasma and rat plasma are obtained from conscious mixed-breed hounds (either sex, Hazelton-LRE, Kalamazoo, Mich., U.S.A.) or from anesthetized male Sprague-Dawley rats (Harlan Sprague-Dawley, Inc., Indianapolis, Ind., U.S.A.) by venipuncture into 3.8 percent citrate. Fibrinogen is prepared from in-date ACD human blood as the fraction I-2 according to previous procedures and specifications. Smith, Biochem. Chem. […] Human fibrinogen is also purchased as 98 percent pure/plasmin free from American Diagnostics, Greenwich, Conn. Coagulation reagents ACTIN, Thromboplastin, and Human plasma are from Baxter Healthcare Corp., Dade Division, Miami, Fla. Bovine thrombin from Parke-Davis (Ann Arbor, Mich.) is used for coagulation assays in plasma. Coagulation assay procedures are as previously described. Smith, et al., Thrombosis Research, 5, 163-174 (1988). A CoAScreener coagulation instrument (American LABor, Inc.) is used for all coagulation assay measurements. The prothrombin time (PT) is measured by adding 0.05 ml saline and 0.05 ml Thromboplastin-C reagent to 0.05 ml test plasma. The activated partial thromboplastin time (APTT) is measured by incubation of 0.05 ml test plasma with 0.05 ml Actin reagent for 120 seconds followed by 0.05 ml CaCl2 (0.02M). […] The compounds of formula I are added to human or animal plasma over a wide range of concentrations to determine prolongation effects on the APTT, PT, and TT assays. Linear extrapolations are performed to estimate the concentrations required to double the clotting time for each assay.

Human Plasma [3] = test: Anticoagulation in human plasma, thrombin time (TT); settings: concentration required to double the thrombin time
Protocol: as §5

Human Plasma [4] = test: Anticoagulation in human plasma, activated partial thromboplastin time (APTT); settings: concentration required to double the APTT
Protocol: as §5

Human plasmin = biological target: T5, Human plasmin (Homo sapiens, UniProt P00747); test: Serine protease inhibition, plasmin (chromogenic substrate), Kass; settings: substrate H-D-Val-Leu-Lys-p-nitroanilide
T5 construct: Human plasmin is purchased from Boehringer Mannheim, Indianapolis, Ind; purchased Boehringer Mannheim, Indianapolis, Ind
Protocol: as §1, §2, §3, §4

T5 sequence (P00747 581-810 limits assumed): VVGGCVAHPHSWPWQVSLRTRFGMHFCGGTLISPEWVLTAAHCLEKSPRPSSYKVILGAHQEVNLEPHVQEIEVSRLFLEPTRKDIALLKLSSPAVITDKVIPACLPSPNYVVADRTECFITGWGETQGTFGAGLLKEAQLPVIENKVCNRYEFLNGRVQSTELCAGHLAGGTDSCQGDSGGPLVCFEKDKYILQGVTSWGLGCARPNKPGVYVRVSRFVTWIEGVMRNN
T5 sequence (P00747 97-580 partner limits assumed): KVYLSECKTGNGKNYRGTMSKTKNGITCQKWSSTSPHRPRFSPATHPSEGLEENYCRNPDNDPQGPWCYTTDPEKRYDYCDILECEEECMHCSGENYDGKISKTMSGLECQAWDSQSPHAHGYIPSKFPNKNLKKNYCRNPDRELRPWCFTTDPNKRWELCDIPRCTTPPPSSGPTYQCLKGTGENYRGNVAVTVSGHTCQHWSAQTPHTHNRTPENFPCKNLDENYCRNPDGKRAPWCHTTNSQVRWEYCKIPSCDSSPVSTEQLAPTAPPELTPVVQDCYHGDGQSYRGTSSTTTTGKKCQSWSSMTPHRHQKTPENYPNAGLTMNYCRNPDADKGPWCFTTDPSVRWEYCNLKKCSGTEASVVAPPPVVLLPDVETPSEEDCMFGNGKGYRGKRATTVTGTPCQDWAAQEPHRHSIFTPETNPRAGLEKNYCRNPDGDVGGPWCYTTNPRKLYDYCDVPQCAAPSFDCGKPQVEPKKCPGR
T1 sequence (P00742 235-488 limits assumed): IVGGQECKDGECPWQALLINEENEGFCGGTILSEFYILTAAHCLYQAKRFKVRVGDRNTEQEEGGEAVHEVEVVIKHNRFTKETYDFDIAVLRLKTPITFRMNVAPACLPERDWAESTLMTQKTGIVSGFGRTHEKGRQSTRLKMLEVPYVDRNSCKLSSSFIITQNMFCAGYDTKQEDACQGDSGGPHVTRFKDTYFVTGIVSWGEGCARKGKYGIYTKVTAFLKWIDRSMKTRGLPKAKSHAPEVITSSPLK
T1 sequence (P00742 41-179 partner limits assumed): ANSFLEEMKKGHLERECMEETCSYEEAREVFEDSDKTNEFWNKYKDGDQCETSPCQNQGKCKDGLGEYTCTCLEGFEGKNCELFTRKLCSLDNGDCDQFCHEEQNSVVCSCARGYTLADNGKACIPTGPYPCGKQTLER
T3 sequence (P00750 36-562): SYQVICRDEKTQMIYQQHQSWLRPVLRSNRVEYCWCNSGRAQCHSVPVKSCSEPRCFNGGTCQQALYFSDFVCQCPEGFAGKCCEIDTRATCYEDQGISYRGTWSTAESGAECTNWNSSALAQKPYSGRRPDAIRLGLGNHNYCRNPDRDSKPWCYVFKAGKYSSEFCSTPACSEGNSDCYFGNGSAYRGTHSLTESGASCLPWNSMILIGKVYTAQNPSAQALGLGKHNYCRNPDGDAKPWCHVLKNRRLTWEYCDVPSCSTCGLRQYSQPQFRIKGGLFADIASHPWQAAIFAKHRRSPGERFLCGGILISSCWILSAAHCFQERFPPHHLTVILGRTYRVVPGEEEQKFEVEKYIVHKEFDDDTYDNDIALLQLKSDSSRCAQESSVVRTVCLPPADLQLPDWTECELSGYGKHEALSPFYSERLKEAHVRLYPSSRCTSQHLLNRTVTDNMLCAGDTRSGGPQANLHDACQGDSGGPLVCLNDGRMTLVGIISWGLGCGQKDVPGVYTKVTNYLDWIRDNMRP

| Structure (SMILES) | Enzyme Kass, Xa (factor Xa) [L/mol × 10^6] | Enzyme Kass, Human Thrombin (human thrombin) [L/mol × 10^6] | Enzyme Kass, t-Pa [1] [L/mol × 10^6] | Enzyme Kass, Trypsin (Bovine trypsin) [L/mol × 10^6] | Enzyme Kass, Plasmin (Human plasmin) [L/mol × 10^6] | 2 × Clotting time, PT (Human Plasma [2]) | 2 × Clotting time, TT (Human Plasma [3]) [ng/mL] | 2 × Clotting time, APTT (Human Plasma [4]) |
| --- | --- | --- | --- | --- | --- | --- | --- | --- |
| CCS(=O)(=O)N[C@@H](C(=O)N1CCC[C@H]1C(=O)N[C@H](C=O)CCCNC(=N)N)c1ccccc1.Cl [Example 20, EtSO2 -D-Phg-Pro-Arg-H.HCl] | 45 | 510 | 0.34 | 160 | 14 | 880 ng/mL | 34 | 250 ng/mL |
| CCS(=O)(=O)N[C@@H](C(=O)N1CCC[C@H]1C(=O)N[C@H](C=O)CCCNC(=N)N)C1CCCCC1.Cl [Example 22, EtSO2 -D-Chg-Pro-Arg-H.HCl] | 24 | 260 | 0.11 | 260 | 13 | 1,100 ng/ML | 46 | 330 ng/mL |
| COCC(=O)N[C@H](Cc1ccccc1)C(=O)N1CCC[C@H]1C(=O)N[C@H](C=O)CCCNC(=N)N.Cl [Example 24, CH3 OCH2 CO-D-Phe-Pro-Arg-H.HCl] | 0.29 | 33 | 0.30 | 57 | 3.8 | 1,200 ng/ML | 38 | 440 ng/mL |
| Cl.N=C(N)NCCC[C@@H](C=O)NC(=O)[C@@H]1CCCN1C(=O)[C@@H](Cc1ccccc1)NC(=O)C(F)(F)F [Example 25, CF3 CO-D-Phe-Pro-Arg-H.HCl] | 0.033 | 26 | 0.17 | 15 | 0.31 | 1,800 ng/ML | 59 | 1,300 ng/ML |
| CCCN(CCC)S(=O)(=O)c1ccc(C(=O)N[C@H](Cc2ccccc2)C(=O)N2CCC[C@H]2C(=O)N[C@H](C=O)CCCNC(=N)N)cc1.Cl [Example 29, 4-(n-Pr2 NSO2)-C6 H4 CO-D-Phe-Pro-Arg-H.HCl] | 0.32 | 43 | 0.62 | 15 | 0.86 | 4,800 ng/ML | 150 | 3,500 ng/ML |

Now from value to molecule, other results behind:

| Enzyme Kass, Xa (factor Xa) [L/mol × 10^6] | Enzyme Kass, Human Thrombin (human thrombin) [L/mol × 10^6] | Enzyme Kass, t-Pa [1] [L/mol × 10^6] | Enzyme Kass, Trypsin (Bovine trypsin) [L/mol × 10^6] | Enzyme Kass, Plasmin (Human plasmin) [L/mol × 10^6] | Structure (SMILES) | 2 × Clotting time, PT (Human Plasma [2]) | 2 × Clotting time, TT (Human Plasma [3]) [ng/mL] | 2 × Clotting time, APTT (Human Plasma [4]) |
| --- | --- | --- | --- | --- | --- | --- | --- | --- |
| 0.066 | 3.4 | 0.11 | 14 | 0.28 | CC(=O)N[C@H](Cc1ccccc1)C(=O)N1CCC[C@H]1C(=O)N[C@H](C=O)CCCN=C(N)N.Cl [Example 23, Ac-D-Phe-Pro-Arg-H.HCl] | 4,100 ng/ML | 140 | 2,700 ng/ML |
| 0.10 | 29 | 0.37 | 14 | 0.54 | Cl.N=C(N)NCCC[C@@H](C=O)NC(=O)[C@@H]1CCCN1C(=O)[C@@H](Cc1ccccc1)NC(=O)Cc1ccccc1 [Example 26, PhCH2 CO-D-Phe-Pro-Arg-H.HCl] | 2,000 ng/ML | 64 | 1,100 ng/ML |
| 0.064 | 20 | 0.26 | 5.9 | 0.24 | Cl.N=C(N)NCCC[C@@H](C=O)NC(=O)[C@@H]1CCCN1C(=O)[C@@H](Cc1ccccc1)NC(=O)C1CCCCC1 [Example 27, cyclohexyl-CO-D-Phe-Pro-Arg-H.HCl] | 1,800 ng/ML | 63 | 1,300 ng/ML |
| 0.21 | 25 | 0.54 | 60 | 2.0 | CCNC(=O)N[C@H](Cc1ccccc1)C(=O)N1CCC[C@H]1C(=O)N[C@H](C=O)CCCN=C(N)N.Cl [Example 32, EtNHCO-D-Phe-Pro-Arg-H.HCl] | 1,700 ng/ML | 63 | 1,100 ng/ML |
| 8.1 | 360 | 0.75 | 140 | 26 | CCOC(=O)N[C@H](CC1CCCCC1)C(=O)N1CCC[C@H]1C(=O)N[C@H](C=O)CCCN=C(N)N.Cl [Example 34, EtOCO-D-Cha-Pro-Arg-H.HCl] | 890 ng/mL | 48 | 410 ng/mL |
